Converted amounts (≈) assume the structure as drawn.
Tests used:
[1] = test system: BPH-1; test: Cytotoxicity GI50 (MTT and thymidine incorporation), BPH-1; format: cell-based; conditions: Homo sapiens
Method: (§1) To confirm this observation, we compared the cytotoxicities of CMT-3 and doxycycline for a panel of common human prostate cancer cell lines. Cytotoxicity was measured using the MTT assay (see above) and a cellular thymidine incorporation assay as described by Lokeshwar et al. (1995a). The 50% growth inhibition (GI50) values obtained using both assays were identical. As shown in the data summarized in Table 3, below, CMT-3 was two- to eight-fold more cytotoxic than doxycycline.
(§2) Growth inhibition was calculated from linear regression of the dose-response curves generated for each experiment using log(dose) vs. cell proliferation (% of control). Correlation coefficient (r) was always ≧0.95 (negative). Results are presented as Mean±SEM of at least three GI50 values calculated from each experiment.

[2] = test system: C8161 cells; test: C8161 cell proliferation (doubling time); format: cell-based, human; conditions: 50 μg/mL; for Doubling Time: on plastic, DMSO 22 hr
Method: Cell Culture and Maintenance: C8161 cells, a human melanoma cell line, were maintained in Dulbecco's modified Eagle's medium (DMEM; […] These cells were routinely screened for Mycoplasma contamination using the GenProbe Rapid Detection System (Fisher Scientific; Chicago, Ill.). Chemically Modified Tetracyclines: Fresh stock solutions of the chemically modified tetracycline compounds (2 mg/mL) were prepared for each experiment by hydrating in 2% dimethyl sulfoxide (DMSO)/water pH 10, then adjusting to pH 7.4 using 1.0 M HCl. […] Sigma Chem. Co.; control) or 50 μg/mL of doxycycline or the other CMTs (three wells on each plate per compound). […] The doubling time for C8161 cells in the presence of each compound was then determined and compared to the DMSO treated cells (control).

[3] = test system: LNCaP; test: Cytotoxicity GI50 (MTT and thymidine incorporation), LNCaP; format: cell-based; conditions: Homo sapiens
Method: as §1, §2

[4] = test system: Dunning MAT LyLu cells; test: Matrigel invasion assay (Boyden chamber, MTT), MAT LyLu; format: cell-based, rat
Method: (§3) In this method, 4×10^5 tumor cells were plated on the top chamber of the Boyden chemotaxis assay chambers (Costar Transwell plates). The bottom side of the chamber was a 12 μm-pore polycarbonate filter layered with 0.5 mm thick layer of Matrigel. The bottom well contained a chemoattractant, a serum-free culture-conditioned medium from FHS 733 cells, a line of human fetal lung fibroblasts (ATCC No. HTB-157). Cancer cells (4×10^5) were plated in the top wells of the plates. Doxycycline or CMTs were diluted in a serum-free medium to 5 μg/mL, and were added to both top and bottom chambers. […] After 48 hr incubation, MTT was added to both the top and bottom wells (0.5 mg/mL), and incubation was continued for 4 hr. Wells were then emptied, and the cells from the undersides of the filter were pooled with those in the bottom wells with a filter tip. The reduced MTT (formazan) from top and bottom wells was solubilized with DMSO overnight, and absorbance (O.D.) at 515 nm was measured. The ratio of the O.D. from the bottom wells to that of the total (i.e., O.D. of top plus bottom wells) was taken as the invasive potential. […] The MTT assay procedure also normalizes the coincident inhibition due to the cytotoxic effects of the agents under investigation. Results presented are from three independent experiments.

[5] = test system: MAT LyLu; test: Cytotoxicity GI50 (MTT and thymidine incorporation), MAT LyLu; format: cell-based; conditions: Rattus norvegicus
Method: as §1, §2

[6] = test system: Dunning MAT LyLu tumor; test: MAT LyLu tumor incidence, growth and metastasis, predosing 7 days before implant; format: in vivo, Copenhagen rats; conditions: for tumor growth rate (time to reach tumor volume of 3 cm^3): 40 mg/kg predosing, animals with measurable tumors, control 15.9±2.0; for decrease in the number of lung metastases: summary b179, predosing context; for remission of palpable tumors (rats): two separate experiments
Method: (§4) Tumor Generation and Treatment: Dunning MAT LyLu cells were harvested from culture flasks, and a 0.5 mL suspension containing from 2×10^5 to 2×10^6 cells/mL was inoculated into the dorsal flank of adult Copenhagen rats (Harlan Sprague Dawley, Indianapolis, Ind.). The rats weighed 250-300 g, and were 90-100 days old. Tumors were detected by palpating the skin around the site of injection starting 3 days following implant of the tumor cells (Lokeshwar et al. 1995a).
(§5) Drug Treatment In Vivo: Doxycycline and CMT-3 were dissolved in a 2% aqueous solution of a soluble form of carboxymethyl cellulose (Sigma Cat. No. C-5678), and a fresh solution was made up daily. Rats were gavaged daily with 1 mL of the drug solution (concentrations specified below), or the vehicle (2% carboxymethyl cellulose). Tumor growth was recorded three times a week, and rats were weighed weekly. The effect of various treatments on tumor growth was monitored over time using calipers, and the volume approximated to an ellipsoid (i.e., volume=length×width×height×0.5236) (Lokeshwar et al. 1993b). Tumor growth rate was determined by regression analysis of tumor volume versus time, for each tumor-bearing rat. Mean tumor growth rate (time to reach a fixed volume) for each treatment group was then used to evaluate the statistical significance of treatment efficacy using the INSTAT statistical program (Ravitz Software, San Diego, Calif.). Rats were euthanized once the tumor volume reached ≧10 cm^3. At that time animals were necropsied, tumors and lungs were removed and fixed in Bouin's fixative. Macroscopic tumor foci on the lungs were counted under a dissecting microscope.
In another series of experiments, we examined whether predosing host animals with the drugs would affect tumor growth and metastasis. Daily gavage of control or drugs (doxycycline or CMT-3; 40 mg/kg) was begun 7 days prior to the injections of the MAT LyLu tumor cells (2×10^5 cells/animal) and continued for a total of 21 days.
Tumor growth rates were calculated from thrice-weekly measurement of tumor volume with linear regression analysis of log-transformed volume measurements (Dudak et al. 1996).

[7] = test system: Dunning MAT LyLu tumor; test: MAT LyLu tumor growth and lung metastasis, gavage from day of implant; format: in vivo, Copenhagen rats
Method: as §4, §5
CMT-3 and doxycycline were tested for antitumor activity in vivo. In this series of experiments, daily gavage of drugs was started on the same day on which tumor cells were implanted in the test animals. Tumor growth was initiated by sub cutis injection of 1×10^6 tumor cells.

[8] = MTS cytotoxicity assay, COLO 205; conditions: human, COLO 205 colon carcinoma cells, percent cytotoxicity, two days
[9] = test system: PC-3; test: Cytotoxicity GI50 (MTT and thymidine incorporation), PC-3; format: cell-based; conditions: Homo sapiens
Method: as §1, §2

[10] = test system: TSU-PR1 cells; test: Matrigel invasion assay (Boyden chamber, MTT), TSU-PR1; format: cell-based, human; conditions: Homo sapiens; for IC50: TSU-PR1, 48 hr, read-out: 50% inhibitory dose (IC50), Matrigel invasion
Method: as §3

[11] = test system: TSU PR-1; test: Cytotoxicity GI50 (MTT and thymidine incorporation), TSU PR-1; format: cell-based; conditions: Homo sapiens, TSU-Pr1
Method: as §1, §2

[12] = 40 mg/kg daily oral gavage from day of implant

SMILES	GI50 [1] [µM]	Doubling Time [2] [h]	GI50 [3] [µM]	GI50 [5] [µM]	tumor growth rate (time to reach tumor volume of 3 cm^3) [6] [days]	decrease in the number of lung metastases [6] [%]	remission of palpable tumors (rats) [6] [%]	metastatic tumor foci in lungs [7, 12] [MTF/rat]	cytotoxicity at 2 days, 5 µM [8] [%]	cytotoxicity at 2 days, 10 µM [8] [%]	cytotoxicity at 2 days, 20 µM [8] [%]	cytotoxicity at 2 days, 50 µM [8] [%]	cytotoxicity at 2 days, 100 µM [8] [%]	GI50 [9] [µM]	IC50 [10] [µg/mL]	GI50 [11] [µM]	also measured
C[C@H]1c2cccc(O)c2C(=O)C2=C(O)[C@]3(O)C(=O)C(C(N)=O)=C(O)[C@@H](N(C)C)[C@@H]3[C@@H](O)[C@@H]21 [Doxycycline, 6α-deoxy-5-hydroxy-tetracycline, reference compound]	21.3 ± 5.4	22	13.9 ± 2.97	20 ± 6.4	16.7 ± 1.9	33±7.0	20	43.6±18.8	0	0	45.7	58.8	66.5	36.4 ± 2.5	27 ± 4.3 (≈ 60.8 µM)	41 ± 11	inhibition at 5 µg/mL ([4]; Rattus norvegicus, MAT LyLu, 5 μg/mL, 48 hr, read-out: inhibition of invasive/metastatic potential (Matrigel invasion)): 68 ± 4.2%; tumor incidence ([6]; 40 mg/kg daily, begun 7 days before implant, separate experiments): > 90%; metastatic tumor foci in lungs ([7]; 20 mg/kg daily oral gavage from day of implant): 39.7±17.2 MTF/rat; inhibition at 5 µg/mL ([10]; TSU-PR1, 5 μg/mL, 48 hr): 8 ± 1.8%
NC(=O)C1=C(O)CC2CC3Cc4cccc(O)c4C(=O)C3=C(O)C2(O)C1=O (stereo not shown) [CMT-3, 6-demethyl-6-deoxy-4-de(dimethylamino)tetracycline]	10.5 ± 3.7	28	5 ± 2.1	5.2 ± 1.9	20.2 ± 3.5	58±8	30	28.9±15.4	17	28.8	52	79	85.6	10.6 ± 2.1	1.7 ± 0.31 (≈ 4.58 µM)	14.7 ± 2.64	increase of doubling time ([2]; versus DMSO): ~27%; effect on invasive potential after pretreatment only ([4]; 48 hour pretreatment, no drug in the invasion chamber): only a moderate effect; inhibition of invasive/metastatic potential (Matrigel invasion) ([4]; MAT LyLu, 5 μg/mL, 48 hr): equally inhibited; tumor incidence lower than control or doxycycline groups by ([6]; 40 mg/kg, predosing): 55%±18; tumor remission (inhibition of tumor incidence) ([6]; 40 mg/kg, predosing): tumor remission (inhibition of tumor incidence) occurred; gain in body weights ([6]; at termination (6-month post-treatment observation), control 3%): 12%; decrease in MTF versus controls ([6]; predosing): 37.5%; MTF in treated animals ([6]; predosing, animals with tumors ≧10 cm^3, controls 74.2±6.4): 46.3±6.7; tumor incidence ([6]; preparation of CMT-3 of greater purity): 43%; primary tumor growth versus control group (regression analysis of tumor volumes) ([7]; 20 mg/kg or 40 mg/kg): no significant difference; reduction in MTF relative to the control group ([7]; 40 mg/kg (10 mg/rat)): 51%; time from injection of cells to 3 cm^3 tumor ([7]; control 13.57±2.12 days): 14.0 ± 1.9 days; number of lung metastases ([7]; oral gavage daily for 21 days following implant, controls 59.5±13.9): 28.9±15.4 sites/animal

— US6429204B1, “Method of inhibiting cancer growth” (University of Miami, priority 1997, dated 2002)
